We go through ten molecules from ChEMBL document CHEMBL1122122, “Drug latentiation by gamma-glutamyl transpeptidase” (J Med Chem, 1982).

Residues, ends and D or L forms follow the SMILES beside them.

A short description of the experiment: Compound evaluated for drug latentiation activity by determining relative rate of cleavage by gamma-glutamyl transpeptidase. In kind it is functional.

The molecule `NC(CCC(=O)NCCCC(=O)O)C(=O)O` (stereo not given) returned a Relative activity of 9. For `NC(=O)CC[C@H](N)C(=O)NCC(=O)O` (H-Gln-Gly-OH) the value was 70; for `NC(CCC(=O)Nc1ccccc1O)C(=O)O` (stereo not given), 95.

The molecule `NC(CCC(=O)Nc1ccc(O)cc1)C(=O)O` (stereo not given) registered a Relative activity of 98. Molecule `NC(CCC(=O)N1CSCC1C(=O)O)C(=O)O` (stereo not given) registered a Relative activity of 5. `NC(CCC(=O)NC1(C(=O)O)CCCC1)C(=O)O` (stereo not given): the Relative activity was determined as 19. The same measure for `CCC(NC(=O)CCC(N)C(=O)O)C(=O)O` (stereo not given): 95. The same measure for `CSC[C@H](NC(=O)CC[C@H](N)C(=O)O)C(=O)NCC(=O)O`: 100. For `NC(CCC(=O)N1CCCC1C(=O)O)C(=O)O` (stereo not given) the value was 4. `NC(CCC(=O)Nc1cccc(O)c1)C(=O)O` (stereo not given) gave a Relative activity of 96.
